Data set [1] concerns SMN2 minigene mRNA (SMN2-A minigene) in HEK293H cells. Kind of data set: SMN2 minigene mRNA splicing RT-qPCR assay in cultured cells. It counts as cell-based, human. The settings on record: Homo sapiens, HEK293-H; concentration increasing full length SMN2 mRNA 1.5-fold relative to vehicle-treated cells; HEK293H cells with SMN2-A minigene, 24 hours, 7-point concentration data; read-out: EC1.5x for production of full length SMN2 mRNA. The essentials: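 Read-out: minigene-specific full-length (exon 7-included) SMN2 mRNA by one-step multiplex RT-qPCR, normalized to GAPDH and divided by vehicle-treated level. Stable SMN2-A minigene HEK293H cells, 24 h compound exposure, 7 concentrations in duplicate. EC1.5× = concentration raising FL mRNA 1.5-fold.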
For orientation: Real-time PCR tracks product formation cycle by cycle.

Data set [2] has as its system Smn protein in SMA patient fibroblast cells (GM03813). Kind of data set: Smn protein assay in cultured cells (SMN HTRF). It counts as cell-based, human. The following applies: SMA patient fibroblast cells, 48 hours; for EC1.5x for Smn protein expression: 7-point concentration curve, SMN HTRF, concentration producing 1.5 times Smn protein vs DMSO vehicle control; for maximum fold (Fold) increase of Smn protein: 7-point concentration data, fold relative to vehicle control. In a few lines: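 Read-out: HTRF 665/620 nm ratio, blank-subtracted as ΔF, then expressed as fold over DMSO vehicle. Fibroblasts from SMA patients were exposed to compounds for 48 h (7 points, 3.16-fold steps, triplicates). Values are EC1.5× and maximum fold Smn increase.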

The results in this text go back to patent US11753407B2, “Compounds for treating spinal muscular atrophy” (PTC Therapeutics, Inc., priority 2012, dated 2023).

SMILES strings stand for the structures.

Broadly, the melting point is the temperature, or range, at which the solid turns liquid.

The molecule `CCc1cc(-c2cc(=O)n3cc(N4CCN(CCO)CC4)ccc3n2)cn2cc(C)nc12` [Compound 647, 2-(8-ethyl-2-methylimidazo[1,2-a]pyridin-6-yl)-7-[4-(2-hydroxyethyl)piperazin-1-yl]-4H-pyrido[1,2-a]pyrimidin-4-one] showed a melting point of 248 to 253 °C. Besides, in data set [1], the EC (1.5-fold increase) is less than 0.1 µM. For the same molecule, in data set [2], the “EC1.5x for Smn protein expression” value is listed as “**** (an EC1.5x≤0.3 μM is indicated by four stars (****))” and the “maximum fold (Fold) increase of Smn protein” value is reported as “***** (a fold increase >1.65 is indicated by five stars (*****))”.
For `CCc1cc(-c2cc(=O)n3cc(N4CCN(C5CCC5)CC4)ccc3n2)cn2cc(C)nc12` [Compound 648, 7-(4-cyclobutylpiperazin-1-yl)-2-(8-ethyl-2-methylimidazo[1,2-a]pyridin-6-yl)-4H-pyrido[1,2-a]pyrimidin-4-one] the same measures were 274 to 279 °C, less than 0.1 µM, “**** (an EC1.5x≤0.3 μM is indicated by four stars (****))” and “***** (a fold increase >1.65 is indicated by five stars (*****))”.
For `CCc1cc(-c2cc(=O)n3cc(N4CCN(CCO)[C@H](C)C4)ccc3n2)cn2cc(C)nc12` [Compound 649, 2-(8-ethyl-2-methylimidazo[1,2-a]pyridin-6-yl)-7-[(3R)-4-(2-hydroxyethyl)-3-methylpiperazin-1-yl]-4H-pyrido[1,2-a]pyrimidin-4-one] the same measures were 217 to 220 °C, less than 0.1 µM, “**** (an EC1.5x≤0.3 μM is indicated by four stars (****))” and “***** (a fold increase >1.65 is indicated by five stars (*****))”.
For `CCc1cc(-c2cc(=O)n3cc(N4CCN(C5CCC5)[C@H](C)C4)ccc3n2)cn2cc(C)nc12` [Compound 650, 7-[(3R)-4-cyclobutyl-3-methylpiperazin-1-yl]-2-(8-ethyl-2-methylimidazo[1,2-a]pyridin-6-yl)-4H-pyrido[1,2-a]pyrimidin-4-one] the same measures were 209 to 212 °C, less than 0.1 µM, “**** (an EC1.5x≤0.3 μM is indicated by four stars (****))” and “***** (a fold increase >1.65 is indicated by five stars (*****))”.
The molecule `CCc1cc(-c2cc(=O)n3cc(N4CCN(CCO)[C@@H](C)C4)ccc3n2)cn2cc(C)nc12` [Compound 651, 2-(8-ethyl-2-methylimidazo[1,2-a]pyridin-6-yl)-7-[(3S)-4-(2-hydroxyethyl)-3-methylpiperazin-1-yl]-4H-pyrido[1,2-a]pyrimidin-4-one] returned a melting point of 220 to 223 °C. For the same molecule, in data set [1], the EC (1.5-fold increase) was less than 0.1 µM. In data set [2], the “EC1.5x for Smn protein expression” value is listed as “**** (an EC1.5x≤0.3 μM is indicated by four stars (****))” and the “maximum fold (Fold) increase of Smn protein” value was “***** (a fold increase >1.65 is indicated by five stars (*****))”.
For `CCc1nc(C)cn2nc(-c3cc(=O)n4cc(C5CCN(C)CC5)ncc4n3)cc12` [Compound 654, 2-(4-ethyl-6-methylpyrazolo[1,5-a]pyrazin-2-yl)-7-(1-methylpiperidin-4-yl)-4H-pyrazino[1,2-a]pyrimidin-4-one] the same measures were 261 to 263 °C, less than 0.1 µM, “**** (an EC1.5x≤0.3 μM is indicated by four stars (****))” and “***** (a fold increase >1.65 is indicated by five stars (*****))”.
